Assay [1] has as its system PKB Ser473 phosphorylation in Rat1-myr-HA-p110 beta cells. Kind of assay: Reverse protein array, PKB Ser473 phosphorylation in Rat1-myr-HA-p110 beta cells. The assay is classed as cell-based. To be noted: Rattus norvegicus, 0.5 h, 30 minutes compound incubation, read-out: p-PKB/IC50_beta.
Assay [2] deals with PKB Ser473 phosphorylation in Rat1-myr-HA-p110 delta cells. Kind of assay: Reverse protein array, PKB Ser473 phosphorylation in Rat1-myr-HA-p110 delta cells. The assay is classed as cell-based. The settings on record: Rattus norvegicus, 0.5 h, 30 minutes compound incubation, read-out: p-PKB/IC50_delta.

pIC50: −log10 of the molar value. Bounds are passed on as bounds.

The results in this text go back to patent US20100311714A1, “1H-IMIDAZO[4,5-c]QUINOLINONE COMPOUNDS” (priority 2009, published 2010).

For `COCCOc1cc(-c2ccc3ncc4c(c3c2)n(-c2ccc(OC)nc2OC)c(=O)n4C)cnc1C` [Example 8.9, 1-(2,6-Dimethoxy-pyridin-3-yl)-8-[5-(2-methoxy-ethoxy)-6-methyl-pyridin-3-yl]-3-methyl-1,3-dihydro-imidazo[4,5-c]quinolin-2-one], the figures for the pIC50 in assay [1] and in assay [2] were 7.40 and 7.13, respectively.
For `COCc1ncc(-c2ccc3ncc4c(c3c2)n(-c2ccc(OC)nc2OC)c(=O)n4C)cc1OC` [Example 8.12, 1-(2,6-Dimethoxy-pyridin-3-yl)-8-(5-methoxy-6-methoxymethyl-pyridin-3-yl)-3-methyl-1,3-dihydro-imidazo[4,5-c]quinolin-2-one], in that order: 7.09 and 6.87.
On to `COc1nc(N2CCNCC2)ccc1-n1c(=O)n(C)c2cnc3ccc(-c4cnc(N(C)C)nc4)cc3c21` [Example 9.4, 8-(2-Dimethylamino-pyrimidin-5-yl)-1-(2-methoxy-6-piperazin-1-yl-pyridin-3-yl)-3-methyl-1,3-dihydro-imidazo[4,5-c]quinolin-2-one], for which the pIC50 in assay [1] is 7.71; in assay [2], 7.40.
In the case of `CCNc1cc(-c2ccc3ncc4c(c3c2)n(-c2ccc(OC)nc2C)c(=O)n4C)cnc1C` [Example 11.7, 8-(5-Ethylamino-6-methyl-pyridin-3-yl)-1-(6-methoxy-2-methyl-pyridin-3-yl)-3-methyl-1,3-dihydro-imidazo[4,5-c]quinolin-2-one], the results for the pIC50 in assay [1] and in assay [2] were 8.12 and 8.08, respectively.
In the case of `COc1ccc(-n2c(=O)n(C)c3cnc4ccc(-c5cnc(CO)c(OC)c5)cc4c32)c(C)n1` [Example 11.8, 8-(6-Hydroxymethyl-5-methoxy-pyridin-3-yl)-1-(6-methoxy-2-methyl-pyridin-3-yl)-3-methyl-1,3-dihydro-imidazo[4,5-c]quinolin-2-one], the pIC50 was 7.51 in assay [1] and 6.94 in assay [2].
For `CCN(C)c1ccc(-n2c(=O)n(C)c3cnc4ccc(-c5ccc(NC)nc5)cc4c32)c(C)n1` [Example 12.1, 1-[6-(Ethyl-methyl-amino)-2-methyl-pyridin-3-yl]-3-methyl-8-(6-methylamino-pyridin-3-yl)-1,3-dihydro-imidazo[4,5-c]quinolin-2-one], in that order: more than 8.34 and 7.34.
On to `CCNc1cc(-c2ccc3ncc4c(c3c2)n(-c2ccc(N(C)CC)nc2C)c(=O)n4C)cnc1C` [Example 12.2, 8-(5-Ethylamino-6-methyl-pyridin-3-yl)-1-[6-(ethyl-methyl-amino)-2-methyl-pyridin-3-yl]-3-methyl-1,3-dihydro-imidazo[4,5-c]quinolin-2-one], for which the pIC50 in assay [1] and in assay [2] was more than 8.34 each time.
Take `CCOc1ccc(-c2ccc3ncc4c(c3c2)n(-c2ccc(OCCOC)nc2C)c(=O)n4C)cn1` [Example 13.1, 8-(6-Ethoxy-pyridin-3-yl)-1-[6-(2-methoxy-ethoxy)-2-methyl-pyridin-3-yl]-3-methyl-1,3-dihydro-imidazo[4,5-c]quinolin-2-one]: the pIC50 is 7.80 in assay [1] and 6.95 in assay [2].
Consider `COCCOc1ccc(-n2c(=O)n(C)c3cnc4ccc(-c5cnc(N)c(C(F)(F)F)c5)cc4c32)c(C)n1` [Example 13.2, 8-(6-Amino-5-trifluoromethyl-pyridin-3-yl)-1-[6-(2-methoxy-ethoxy)-2-methyl-pyridin-3-yl]-3-methyl-1,3-dihydro-imidazo[4,5-c]quinolin-2-one], for which the results for the pIC50 in assay [1] and in assay [2] were 8.28 and 7.53, respectively.
For `CNc1ccc(-c2ccc3ncc4c(c3c2)n(-c2ccc(OCCOC)nc2C)c(=O)n4C)cn1` [Example 13.3, 1-[6-(2-Methoxy-ethoxy)-2-methyl-pyridin-3-yl]-3-methyl-8-(6-methylamino-pyridin-3-yl)-1,3-dihydro-imidazo[4,5-c]quinolin-2-one], in that order: more than 8.34 and 7.41.
For `CCNc1cc(-c2ccc3ncc4c(c3c2)n(-c2ccc(OCCOC)nc2C)c(=O)n4C)cnc1C` [Example 13.4, 8-(5-Ethylamino-6-methyl-pyridin-3-yl)-1-[6-(2-methoxy-ethoxy)-2-methyl-pyridin-3-yl]-3-methyl-1,3-dihydro-imidazo[4,5-c]quinolin-2-one], in that order: more than 8.34 and more than 8.34.
Take `CNc1ncc(-c2ccc3ncc4c(c3c2)n(-c2ccc(OCCOC)nc2C)c(=O)n4C)cn1` [Example 13.5, 1-[6-(2-Methoxy-ethoxy)-2-methyl-pyridin-3-yl]-3-methyl-8-(2-methylamino-pyrimidin-5-yl)-1,3-dihydro-imidazo[4,5-c]quinolin-2-one]: the pIC50 is 7.94 in assay [1] and 7.43 in assay [2].
Consider `CCOc1ccc(-c2ccc3ncc4c(c3c2)n(-c2ccc(C)nc2C)c(=O)n4C)cn1` [Example 14.2, 1-(2,6-Dimethyl-pyridin-3-yl)-8-(6-ethoxy-pyridin-3-yl)-3-methyl-1,3-dihydro-imidazo[4,5-c]quinolin-2-one], for which the pIC50 is 7.66 in assay [1] and 7.17 in assay [2].
On to `Cc1ccc(-n2c(=O)n(C)c3cnc4ccc(-c5cnc(N(C)C)nc5)cc4c32)c(C)n1` [Example 14.3, 8-(2-Dimethylamino-pyrimidin-5-yl)-1-(2,6-dimethyl-pyridin-3-yl)-3-methyl-1,3-dihydro-imidazo[4,5-c]quinolin-2-one], for which the figures for the pIC50 in assay [1] and in assay [2] were 7.39 and 6.91, respectively.
On to `CNc1ncc(-c2ccc3ncc4c(c3c2)n(-c2ccc(C)nc2C)c(=O)n4C)cn1` [Example 14.4, 1-(2,6-Dimethyl-pyridin-3-yl)-3-methyl-8-(2-methylamino-pyrimidin-5-yl)-1,3-dihydro-imidazo[4,5-c]quinolin-2-one], for which the pIC50 in assay [1] was 7.62; in assay [2] it was 7.49.
For `Cc1ccc(-n2c(=O)n(C)c3cnc4ccc(-c5cnc(N)c(C(F)(F)F)c5)cc4c32)c(C)n1` [Example 14.5, 8-(6-Amino-5-trifluoromethyl-pyridin-3-yl)-1-(2,6-dimethyl-pyridin-3-yl)-3-methyl-1,3-dihydro-imidazo[4,5-c]quinolin-2-one], in that order: 7.97 and 7.84.
For `CCNc1cc(-c2ccc3ncc4c(c3c2)n(-c2ccc(C)nc2C)c(=O)n4C)cnc1C` [Example 14.6, 1-(2,6-Dimethyl-pyridin-3-yl)-8-(5-ethylamino-6-methyl-pyridin-3-yl)-3-methyl-1,3-dihydro-imidazo[4,5-c]quinolin-2-one], in that order: 8.09 and more than 8.34.
As for `Cc1ccc(-n2c(=O)n(C)c3cnc4ccc(-c5cnc6c(ccn6C)c5)cc4c32)c(C)n1` [Example 14.7, 1-(2,6-Dimethyl-pyridin-3-yl)-3-methyl-8-(1-methyl-1H-pyrrolo[2,3-b]pyridin-5-yl)-1,3-dihydro-imidazo[4,5-c]quinolin-2-one], the pIC50 is 7.68 in assay [1] and 7.34 in assay [2].
For `Cc1ccc(-n2c(=O)n(C)c3cnc4ccc(-c5cncc(NC(C)C)c5)cc4c32)c(C)n1` [Example 14.8, 1-(2,6-Dimethyl-pyridin-3-yl)-8-(5-isopropylamino-pyridin-3-yl)-3-methyl-1,3-dihydro-imidazo[4,5-c]quinolin-2-one], in that order: 7.21 and 7.46.
For `COCCN(C)c1ccc(-n2c(=O)n(C)c3cnc4ccc(-c5cnc(N)c(C(F)(F)F)c5)cc4c32)c(C)n1` [Example 15.1, 8-(6-Amino-5-trifluoromethyl-pyridin-3-yl)-1-{6-[(2-methoxy-ethyl)-methyl-amino]-2-methyl-pyridin-3-yl}-3-methyl-1,3-dihydro-imidazo[4,5-c]quinolin-2-one], in that order: 8.21 and 7.88.
For `CNc1ncc(-c2ccc3ncc4c(c3c2)n(-c2ccc(N(C)CCOC)nc2C)c(=O)n4C)cn1` [Example 15.2, 1-{6-[(2-Methoxy-ethyl)-methyl-amino]-2-methyl-pyridin-3-yl}-3-methyl-8-(2-methylamino-pyrimidin-5-yl)-1,3-dihydro-imidazo[4,5-c]quinolin-2-one], in that order: 7.67 and 7.27.
For `CCOc1ccc(-c2ccc3ncc4c(c3c2)n(-c2ccc(N(C)CCOC)nc2C)c(=O)n4C)cn1` [Example 15.3, 8-(6-Ethoxy-pyridin-3-yl)-1-{6-[(2-methoxy-ethyl)-methyl-amino]-2-methyl-pyridin-3-yl}-3-methyl-1,3-dihydro-imidazo[4,5-c]quinolin-2-one], the pIC50 in assay [1] is 7.55; in assay [2] it was 6.67.
For `CNc1ccc(-c2ccc3ncc4c(c3c2)n(-c2ccc(N(C)CCOC)nc2C)c(=O)n4C)cn1` [Example 15.4, 1-{6-[(2-Methoxy-ethyl)-methyl-amino]-2-methyl-pyridin-3-yl}-3-methyl-8-(6-methylamino-pyridin-3-yl)-1,3-dihydro-imidazo[4,5-c]quinolin-2-one], in that order: 7.82 and 7.50.
For `COCCN(C)c1ccc(-n2c(=O)n(C)c3cnc4ccc(-c5cnc(N(C)C)nc5)cc4c32)c(C)n1` [Example 15.5, 8-(2-Dimethylamino-pyrimidin-5-yl)-1-{6-[(2-methoxy-ethyl)-methyl-amino]-2-methyl-pyridin-3-yl}-3-methyl-1,3-dihydro-imidazo[4,5-c]quinolin-2-one], in that order: 6.88 and 6.64.
For `CCNc1cc(-c2ccc3ncc4c(c3c2)n(-c2ccc(N(C)CCOC)nc2C)c(=O)n4C)cnc1C` [Example 15.6, 8-(5-Ethylamino-6-methyl-pyridin-3-yl)-1-{6-[(2-methoxy-ethyl)-methyl-amino]-2-methyl-pyridin-3-yl}-3-methyl-1,3-dihydro-imidazo[4,5-c]quinolin-2-one], in that order: 8.15 and 8.17.
